Reference: patent US9963467B2, “Boronic acid derivatives and therapeutic uses thereof” (Rempex Pharmaceuticals, Inc., priority 2014, dated 2018)
pKi: −log10 of the molar value.

What was measured:
[1] = tested on: ECL1002; assay: Tigemonam potentiation (MPC@4), ECL1002; type: cell-based; conditions: BLI with tigemonam at 4 μg/mL
[2] = tested on: KP1010 (SHV-12); assay: Tigemonam potentiation (MPC@4), KP1010; type: cell-based
[3] = target: SHV-12 (Klebsiella pneumoniae, UniProt P0AD64, E235K/G234S/L31Q); assay: Ki, nitrocefin cleavage by purified enzyme, SHV-12; type: biochemical; conditions: nitrocefin reporter substrate; read-out: Ki (SHV-12, NCF)
Chain of SHV-12 (P0AD64 22-286 L31Q/G234S/E235K): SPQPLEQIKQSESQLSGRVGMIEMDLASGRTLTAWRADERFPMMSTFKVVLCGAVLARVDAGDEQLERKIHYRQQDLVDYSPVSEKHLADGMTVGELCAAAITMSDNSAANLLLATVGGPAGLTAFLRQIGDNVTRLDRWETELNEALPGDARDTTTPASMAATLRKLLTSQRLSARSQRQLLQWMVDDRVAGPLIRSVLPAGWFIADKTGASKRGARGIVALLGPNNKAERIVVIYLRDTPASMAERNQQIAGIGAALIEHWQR
Outline: (§1)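 Purified enzyme was preincubated with a range of inhibitor concentrations in reaction buffer for 10 min at room temperature. Nitrocefin was then added and its cleavage followed at 490 nm every 10 sec for 10 min.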

[4] = tested on: KP1005 (CTX-M-14); assay: Tigemonam potentiation (MPC@4), KP1005; type: cell-based; conditions: BLI with tigemonam at 4 μg/mL
[5] = tested on: ec302 (TEM-10); assay: Aztreonam potentiation (MPC@4), ec302; type: cell-based; conditions: BLI with aztreonam at 4 μg/mL
[6] = tested on: KP1009 (CTX-M-15); assay: organism not typed; type: cell-based
[7] = tested on: ECL1002; assay: Aztreonam potentiation (MPC@4), ECL1002; type: cell-based; conditions: BLI with aztreonam at 4 μg/mL
[8] = tested on: KP1009 (CTX-M-15); assay: Tigemonam potentiation (MPC@4), KP1009; type: cell-based; conditions: BLI with tigemonam at 4 μg/mL
[9] = target: OXA-48 (Klebsiella pneumoniae, UniProt Q6XEC0); assay: Ki, nitrocefin cleavage by purified enzyme, OXA-48; type: biochemical; conditions: nitrocefin reporter substrate; read-out: Ki (OXA-48, NCF)
Chain of OXA-48 (Q6XEC0 23-265, looked up, species assumed): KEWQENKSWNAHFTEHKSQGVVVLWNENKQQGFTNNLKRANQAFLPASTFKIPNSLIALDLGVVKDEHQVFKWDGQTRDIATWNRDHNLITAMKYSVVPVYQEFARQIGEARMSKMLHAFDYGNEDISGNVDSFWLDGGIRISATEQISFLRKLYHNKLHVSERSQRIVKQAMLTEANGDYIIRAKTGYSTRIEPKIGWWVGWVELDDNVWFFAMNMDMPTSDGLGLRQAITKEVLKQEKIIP
Outline: as §1

[10] = tested on: KP1004 (KPC-2); assay: Aztreonam potentiation (MPC@4), KP1004; type: cell-based; conditions: BLI with aztreonam at 4 μg/mL
[11] = target: KPC-2 (Klebsiella pneumoniae, UniProt Q9F663); assay: Ki, nitrocefin cleavage by purified enzyme, KPC-2; type: biochemical; conditions: nitrocefin reporter substrate; read-out: Ki (KPC-2, NCF)
Chain of KPC-2 (Q9F663 25-293, looked up, species assumed): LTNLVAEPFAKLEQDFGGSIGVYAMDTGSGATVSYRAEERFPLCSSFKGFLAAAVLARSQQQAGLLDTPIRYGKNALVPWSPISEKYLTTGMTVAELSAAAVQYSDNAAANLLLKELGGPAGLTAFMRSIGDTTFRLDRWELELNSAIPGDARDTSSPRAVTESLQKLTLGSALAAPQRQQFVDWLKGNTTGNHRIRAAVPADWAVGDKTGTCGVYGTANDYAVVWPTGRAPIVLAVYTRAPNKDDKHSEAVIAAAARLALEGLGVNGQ
Outline: as §1

[12] = tested on: ec302 (TEM-10); assay: Tigemonam potentiation (MPC@4), ec302; type: cell-based
[13] = tested on: ec308 (SHV-5); assay: Tigemonam potentiation (MPC@4), ec308; type: cell-based
[14] = target: Pa AmpC (Pseudomonas aeruginosa, UniProt P24735); assay: Ki, nitrocefin cleavage by purified enzyme, Pa AmpC; type: biochemical; conditions: nitrocefin reporter substrate; read-out: Ki (Pa AmpC, NCF)
Chain of Pa AmpC (P24735 27-397): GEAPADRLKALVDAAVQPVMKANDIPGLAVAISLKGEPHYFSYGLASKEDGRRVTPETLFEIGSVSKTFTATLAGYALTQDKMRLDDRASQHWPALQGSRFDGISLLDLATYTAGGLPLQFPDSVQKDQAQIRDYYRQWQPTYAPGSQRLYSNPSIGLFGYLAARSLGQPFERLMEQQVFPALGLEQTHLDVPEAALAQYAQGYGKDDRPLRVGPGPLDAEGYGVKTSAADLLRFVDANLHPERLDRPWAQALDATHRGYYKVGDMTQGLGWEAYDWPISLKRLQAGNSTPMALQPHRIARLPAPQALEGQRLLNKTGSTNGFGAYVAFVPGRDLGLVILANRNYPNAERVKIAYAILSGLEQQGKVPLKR
Outline: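 Kinetic read at 490 nm (every 10 sec, 10 min) of nitrocefin cleavage; purified enzyme preincubated 10 min at room temperature with inhibitor series; Ki determined.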

[15] = target: P99 (Enterobacter cloacae, UniProt P05364); assay: Ki, nitrocefin cleavage by purified enzyme, P99; type: biochemical; conditions: nitrocefin reporter substrate; read-out: Ki (P99, NCF)
Chain of P99 (P05364 21-381): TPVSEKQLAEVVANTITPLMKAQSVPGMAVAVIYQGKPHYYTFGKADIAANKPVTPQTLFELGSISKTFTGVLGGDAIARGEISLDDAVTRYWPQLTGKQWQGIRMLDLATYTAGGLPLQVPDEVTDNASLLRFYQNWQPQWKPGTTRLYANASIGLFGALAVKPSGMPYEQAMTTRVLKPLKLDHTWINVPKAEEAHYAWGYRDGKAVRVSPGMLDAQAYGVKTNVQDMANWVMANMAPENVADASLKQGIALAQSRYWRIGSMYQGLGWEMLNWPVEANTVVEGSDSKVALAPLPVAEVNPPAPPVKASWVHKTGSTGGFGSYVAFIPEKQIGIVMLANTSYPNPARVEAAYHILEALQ
Outline: as §1

[16] = tested on: KP1086 (OXA-48); assay: Biapenem potentiation (MPC@1), KP1086; conditions: BLI with biapenem at 1 μg/mL
[17] = tested on: KP1004 (KPC-2); assay: Biapenem potentiation (MPC@1), KP1004; conditions: BLI with biapenem at 1 μg/mL
[18] = tested on: EC1010 (CMY-6); assay: Tigemonam potentiation (MPC@4), EC1010; type: cell-based; conditions: BLI with tigemonam at 4 μg/mL
[19] = target: CTX-M-14 (Escherichia coli, UniProt Q9L5C7); assay: Ki, nitrocefin cleavage by purified enzyme, CTX-M-14; type: biochemical; conditions: nitrocefin reporter substrate; read-out: Ki (CTX-M-14, NCF)
Chain of CTX-M-14 (Q9L5C7 29-291): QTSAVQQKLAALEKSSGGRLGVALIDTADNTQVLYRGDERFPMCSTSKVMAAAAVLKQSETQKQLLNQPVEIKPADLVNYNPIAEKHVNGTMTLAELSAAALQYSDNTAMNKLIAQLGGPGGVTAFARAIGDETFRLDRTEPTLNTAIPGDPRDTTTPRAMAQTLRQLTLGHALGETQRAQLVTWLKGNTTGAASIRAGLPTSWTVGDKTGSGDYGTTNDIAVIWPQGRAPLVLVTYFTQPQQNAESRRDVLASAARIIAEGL
Outline: as §1

[20] = tested on: EC1010 (CMY-6); assay: organism not typed; type: cell-based
[21] = tested on: KP1005 (CTX-M-14); assay: Aztreonam potentiation (MPC@4), KP1005; type: cell-based; conditions: BLI with aztreonam at 4 μg/mL

## CSCC(=O)N[C@H]1Cc2ccc(OCCO)c(C(=O)O)c2OB1O [Compound 20, (R)-2-hydroxy-7-(2-hydroxyethoxy)-3-(2-(methylthio)acetamido)-3,4-dihydro-2H-benzo[e][1,2]oxaborinine-8-carboxylic acid]
[1]
  TIG MPC4 ECL1002: X (MIC of less than 1 μg/mL)
[2]
  TIG MPC4 SHV-12 KP1010: X (key: X: MIC of less than 1 μg/mL; Y: MIC of 1 μg/mL to 10 μg/mL; Z: MIC of greater than 10 μg/mL)
[3]
  pKi: > 9.00
[4]
  TIG MPC4 CTX-M-14 KP1005: Y (MIC of 1 μg/mL to 10 μg/mL)
[5]
  AZT MPC4 TEM-10 ec302: Y (MIC of 1 μg/mL to 10 μg/mL)
[6]
  AZT MPC4 CTX-M-15 KP1009: Y (key: X: MIC of less than 1 ng/mL; Y: MIC of 1 μg/mL to 10 μg/mL; Z: MIC of greater than 10 μg/mL)
[7]
  AZT MPC4 ECL1002: Y (MIC of 1 μg/mL to 10 μg/mL)
[8]
  TIG MPC4 CTX-M-15 KP1009: X (MIC of less than 1 μg/mL)
[9]
  pKi: > 9.00
[10]
  AZT MPC4 KPC-2 KP1004: Y (MIC of 1 μg/mL to 10 μg/mL)
[11]
  pKi: < 8.00
[12]
  TIG MPC4 TEM-10 ec302: Z (key: X: MIC of less than 1 ng/mL; Y: MIC of 1 μg/mL to 10 μg/mL; Z: MIC of greater than 10 μg/mL)
[13]
  TIG MPC4 SHV-5 ec308: X (key: X: MIC of less than 1 μg/mL; Y: MIC of 1 μg/mL to 10 μg/mL; Z: MIC of greater than 10 μg/mL)
[14]
  pKi: < 8.00
[15]
  pKi: < 8.00
[16]
  BPM MPC1 OXA-48 KP1086: Z (MIC of greater than 10 μg/mL)
[17]
  BPM MPC1 KP1004 KPC-2: X (MIC of less than 1 μg/mL)
[18]
  TIG MPC4 CMY-6 EC1010: X (MIC of less than 1 μg/mL)
[19]
  pKi: > 9.00
[20]
  AZT MPC4 CMY-6 EC1010: Y (key: X: MIC of less than 1 ng/mL; Y: MIC of 1 μg/mL to 10 μg/mL; Z: MIC of greater than 10 μg/mL)

## CSCC(=O)N[C@H]1Cc2ccc(SCCO)c(C(=O)O)c2OB1O [Compound 23, (R)-2-hydroxy-7-(2-hydroxyethylthio)-3-(2-(methylthio)acetamido)-3,4-dihydro-2H-benzo[e][1,2]oxaborinine-8-carboxylic acid]
[1]
  TIG MPC4 ECL1002: X (MIC of less than 1 μg/mL)
[2]
  TIG MPC4 SHV-12 KP1010: X (key: X: MIC of less than 1 μg/mL; Y: MIC of 1 μg/mL to 10 μg/mL; Z: MIC of greater than 10 μg/mL)
[3]
  pKi: > 9.00
[4]
  TIG MPC4 CTX-M-14 KP1005: X (MIC of less than 1 μg/mL)
[5]
  AZT MPC4 TEM-10 ec302: Y (MIC of 1 μg/mL to 10 μg/mL)
[6]
  AZT MPC4 CTX-M-15 KP1009: Y (key: X: MIC of less than 1 ng/mL; Y: MIC of 1 μg/mL to 10 μg/mL; Z: MIC of greater than 10 μg/mL)
[7]
  AZT MPC4 ECL1002: Y (MIC of 1 μg/mL to 10 μg/mL)
[8]
  TIG MPC4 CTX-M-15 KP1009: Y (MIC of 1 μg/mL to 10 μg/mL)
[9]
  pKi: > 9.00
[10]
  AZT MPC4 KPC-2 KP1004: Y (MIC of 1 μg/mL to 10 μg/mL)
[11]
  pKi: < 8.00
[12]
  TIG MPC4 TEM-10 ec302: Y (key: X: MIC of less than 1 ng/mL; Y: MIC of 1 μg/mL to 10 μg/mL; Z: MIC of greater than 10 μg/mL)
[13]
  TIG MPC4 SHV-5 ec308: X (key: X: MIC of less than 1 μg/mL; Y: MIC of 1 μg/mL to 10 μg/mL; Z: MIC of greater than 10 μg/mL)
[14]
  pKi: < 8.00
[15]
  pKi: < 8.00
[16]
  BPM MPC1 OXA-48 KP1086: Z (MIC of greater than 10 μg/mL)
[17]
  BPM MPC1 KP1004 KPC-2: X (MIC of less than 1 μg/mL)
[18]
  TIG MPC4 CMY-6 EC1010: Y (MIC of 1 μg/mL to 10 μg/mL)
[19]
  pKi: > 9.00
[20]
  AZT MPC4 CMY-6 EC1010: Y (key: X: MIC of less than 1 ng/mL; Y: MIC of 1 μg/mL to 10 μg/mL; Z: MIC of greater than 10 μg/mL)

## COc1ccc2c(c1C(=O)O)OB(O)[C@@H](NC(=O)c1nnc(N)s1)C2 [Compound 28, (R)-3-(5-amino-1,3,4-thiadiazole-2-carboxamido)-2-hydroxy-7-methoxy-3,4-dihydro-2H-benzo[e][1,2]oxaborinine-8-carboxylic acid]
[1]
  TIG MPC4 ECL1002: Y (MIC of 1 μg/mL to 10 μg/mL)
[2]
  TIG MPC4 SHV-12 KP1010: X (key: X: MIC of less than 1 μg/mL; Y: MIC of 1 μg/mL to 10 μg/mL; Z: MIC of greater than 10 μg/mL)
[3]
  pKi: > 9.00
[4]
  TIG MPC4 CTX-M-14 KP1005: Y (MIC of 1 μg/mL to 10 μg/mL)
[5]
  AZT MPC4 TEM-10 ec302: Y (MIC of 1 μg/mL to 10 μg/mL)
[6]
  AZT MPC4 CTX-M-15 KP1009: Y (key: X: MIC of less than 1 ng/mL; Y: MIC of 1 μg/mL to 10 μg/mL; Z: MIC of greater than 10 μg/mL)
[7]
  AZT MPC4 ECL1002: Y (MIC of 1 μg/mL to 10 μg/mL)
[8]
  TIG MPC4 CTX-M-15 KP1009: Y (MIC of 1 μg/mL to 10 μg/mL)
[9]
  pKi: > 9.00
[10]
  AZT MPC4 KPC-2 KP1004: Y (MIC of 1 μg/mL to 10 μg/mL)
[11]
  pKi: < 8.00
[12]
  TIG MPC4 TEM-10 ec302: Y (key: X: MIC of less than 1 ng/mL; Y: MIC of 1 μg/mL to 10 μg/mL; Z: MIC of greater than 10 μg/mL)
[13]
  TIG MPC4 SHV-5 ec308: X (key: X: MIC of less than 1 μg/mL; Y: MIC of 1 μg/mL to 10 μg/mL; Z: MIC of greater than 10 μg/mL)
[14]
  pKi: 8.00 to 9.00
[15]
  pKi: 8.00 to 9.00
[16]
  BPM MPC1 OXA-48 KP1086: Z (MIC of greater than 10 μg/mL)
[17]
  BPM MPC1 KP1004 KPC-2: Y (MIC of 1 μg/mL to 10 μg/mL)
[18]
  TIG MPC4 CMY-6 EC1010: X (MIC of less than 1 μg/mL)
[19]
  pKi: > 9.00
[21]
  AZT MPC4 CTX-M-14 KP1005: Y (MIC of 1 μg/mL to 10 μg/mL)

## CSCC(=O)N[C@H]1Cc2ccc(O)c(C(=O)O)c2OB1O [Compound 34, (R)-2,7-dihydroxy-3-(2-(methylthio)acetamido)-3,4-dihydro-2H-benzo[e][1,2]oxaborinine-8-carboxylic acid]
[1]
  TIG MPC4 ECL1002: X (MIC of less than 1 μg/mL)
[2]
  TIG MPC4 SHV-12 KP1010: X (key: X: MIC of less than 1 μg/mL; Y: MIC of 1 μg/mL to 10 μg/mL; Z: MIC of greater than 10 μg/mL)
[3]
  pKi: > 9.00
[4]
  TIG MPC4 CTX-M-14 KP1005: X (MIC of less than 1 μg/mL)
[5]
  AZT MPC4 TEM-10 ec302: Y (MIC of 1 μg/mL to 10 μg/mL)
[6]
  AZT MPC4 CTX-M-15 KP1009: Y (key: X: MIC of less than 1 ng/mL; Y: MIC of 1 μg/mL to 10 μg/mL; Z: MIC of greater than 10 μg/mL)
[7]
  AZT MPC4 ECL1002: Y (MIC of 1 μg/mL to 10 μg/mL)
[8]
  TIG MPC4 CTX-M-15 KP1009: Y (MIC of 1 μg/mL to 10 μg/mL)
[9]
  pKi: > 9.00
[10]
  AZT MPC4 KPC-2 KP1004: Y (MIC of 1 μg/mL to 10 μg/mL)
[11]
  pKi: < 8.00
[12]
  TIG MPC4 TEM-10 ec302: Y (key: X: MIC of less than 1 ng/mL; Y: MIC of 1 μg/mL to 10 μg/mL; Z: MIC of greater than 10 μg/mL)
[13]
  TIG MPC4 SHV-5 ec308: X (key: X: MIC of less than 1 μg/mL; Y: MIC of 1 μg/mL to 10 μg/mL; Z: MIC of greater than 10 μg/mL)
[14]
  pKi: < 8.00
[15]
  pKi: 8.00 to 9.00
[16]
  BPM MPC1 OXA-48 KP1086: Y (MIC of 1 μg/mL to 10 μg/mL)
[17]
  BPM MPC1 KP1004 KPC-2: X (MIC of less than 1 μg/mL)
[18]
  TIG MPC4 CMY-6 EC1010: X (MIC of less than 1 μg/mL)
[19]
  pKi: > 9.00
[20]
  AZT MPC4 CMY-6 EC1010: Y (key: X: MIC of less than 1 ng/mL; Y: MIC of 1 μg/mL to 10 μg/mL; Z: MIC of greater than 10 μg/mL)
